Source: US10166218B2, “3-(1H-indol-2-yl)-1H-pyrazolo[3,4-C]pyridines and therapeutic uses thereof” (Samumed, LLC, priority 2015, dated 2019)

How the values were obtained:
Type in all cases: cell-based
[1] = system: Wnt activity (Sp5-Luc reporter, TCF/LEF binding sites) in SW480 colon carcinoma cells; test: Screening assay for Wnt activity: Sp5-Luc reporter gene assay in stably transduced SW480 cells; details: Homo sapiens, overnight incubation
Description: The screening assay for Wnt activity is described as follows. Reporter cell lines can be generated by stably transducing cancer cell lines (e.g., colon cancer) or primary cells (e.g., IEC-6 intestinal cells) with a lentiviral construct that includes a Wnt-responsive promoter driving expression of the firefly luciferase gene.
SW480 colon carcinoma cells were transduced with a lentiviral vector expressing luciferase with a human Sp5 promoter consisting of a sequence of eight TCF/LEF binding sites. SW480 cells stably expressing the Sp5-Luc reporter gene and a hygromycin resistance gene were selected by treatment with 150 μg/mL of hygromycin for 7 days. These stably transduced SW480 cells were expanded in cell culture and used for all further screening activities. Each compound was dissolved in DMSO as a 10 mM stock and used to prepare compound source plates. Serial dilution (1:3, 10-point dose-response curves starting from 10 μM) and compound transfer was performed using the ECHO 550 (Labcyte, Sunnyvale, Calif.) into 384-well white solid bottom assay plates (Greiner Bio-One) with appropriate DMSO backfill for a final DMSO concentration of 0.1%. For Sp5-Luc reporter gene assays, the cells were plated at 4,000 cells/well in 384-well plates with medium containing 1% fetal bovine serum and incubated overnight at 37° C. and 5% CO2. Following incubation, 20 μl of BrightGlo luminescence reagent (Promega) was added to each well of the 384-well assay plates. The plates were placed on an orbital shaker for 2 min and then luminescence was quantified using the Envision (Perkin Elmer) plate reader. Readings were normalized to DMSO only treated cells, and normalized activities were utilized for EC50 calculations using the dose-response log (inhibitor) vs. response-variable slope (four parameters) nonlinear regression feature available in GraphPad Prism 5.0 (or Dotmatics). For EC50 of >10 μM, the percent inhibition at 10 μM is provided.

[2] = system: SW480 colon cancer cells; test: Cell viability assay (CellTiter-Blue) in SW480 colon cancer cells; details: Homo sapiens, 96 h, four days, CellTiter-Blue
Protocol: Representative compounds were screened using the following assay procedure to assess the effect on cell viability as described below.
Each compound was dissolved in DMSO as a 10 mM stock and used to prepare compound source plates. Serial dilution (1:3, 8-point dose-response curves from 10 μM to 0.0045 μM) and compound transfer was performed using the ECHO 550 (Labcyte, Sunnyvale, Calif.) into 96-well clear bottom, black-walled plates (Corning-Costar).
Approximately 2×10^3 SW480 colon cancer cells were seeded into each well and allowed to incubate in the presence or absence of compound for four days at 37° C./5% CO2. Eight replicates of DMSO-treated cells served as controls and cells treated with compound were performed in duplicate.
After incubation, 20 μL of CellTiter-Blue (Promega) was added to each well allowed to incubate for approximately 3 hours. This reagent was a buffered solution which contains resazurin, metabolically active cells were able to reduce rezarurin (blue) into resorufin (pink) which was highly fluorescent. This measured fluorescence was used as a readout for cell viability.
After incubation, the plates were read at Ex 560 nm Em 590 nm (Cytation 3, BioTek). Dose-response curves were generated and EC50 concentration values were calculated using non-linear regression curve fit in the GraphPad Prism (San Diego, Calif.) or Dotmatics' Studies Software (Bishops Stortford, UK). For EC50 of >10 μM, the percent inhibition at 10 μM is provided.

[3] = system: IL-6 (THP-1 cells); test: Inhibition of IL-6 in LPS-stimulated THP-1 human monocyte cells (HTRF); details: inhibition of IL-6 in LPS-stimulated THP-1 cells, HTRF, 10-point dose-response starting from 10 μM
Protocol: Human monocyte cell line (THP-1 cells; Catalog # TIB-202, ATCC, Manassas, Va.) were cultured in Roswell Park Memorial Institute (RPMI) 1640 Medium (Catalog #21870-100, Buffalo, N.Y.) with 1% L-glutamine, 1% HEPES, 1% Sodium Pyruvate, 2% Sodium Bicarbonate supplemented with 100 units/mL penicillin, 50 μg/mL streptomycin, 2-mercaptoethanol (0.05 mM) [basal medium] and 10% fetal bovine serum (Catalog #16140089, Life Technologies, Carlsbad, Calif.) at 37° C. and 5% CO2.
THP-1 cells were cultured in basal media with 1% FBS for 24 hours before the start of the assay. Each compound was dissolved in DMSO as a 10 mM stock and used to prepare compound source plates. Serial dilution (1:3, 10-point dose-response curves starting from 10 μM) and compound transfer was performed using the ECHO 550 (Labcyte, Sunnyvale, Calif.) into 384-well white low volume assay plates (Greiner Bio-One) with appropriate DMSO backfill for a final DMSO concentration of 0.1%. THP-1 cells were plated at 5000 cells/well in the 384-well plates and incubated at 37° C. for 2 h. 500 ng/mL of LPS was added after 2 hours and cells were incubated for another 22 hours at 37° C. Plates were spun in a centrifuge for 1 minute at […] and a mixture of anti-IL6 XL665, and anti-IL6 Cryptate diluted in reconstitution buffer (Cisbio Inc.) was added to each well. Following incubation for 3 hrs at room temperature, Homogeneous Time-Resolved Fluorescence (HTRF) was measured using the Envision (Perkin Elmer) at 665 nm and […]. The ratio of fluorescence at 665 nm to 620 nm was used as a readout for IL6 quantification. All samples were processed in duplicate. Readings were normalized to DMSO treated cells and normalized activities were utilized for EC50 calculations using the dose-response log (inhibitor) vs. response-variable slope (four parameters) nonlinear regression feature available in GraphPad Prism 5.0 (or Dotmatics). For EC50 of >10 μM, the percent inhibition at 10 μM is provided.

[4] = system: primary human fibroblasts derived from IPF patients (LL29 cells) treated with TGF-β1; α-smooth muscle actin (αSMA); test: Inhibition of the fibrotic process: αSMA staining in TGF-β1 treated primary human fibroblasts from IPF patients (LL29 cells); details: Fibroblast, 96 h, TGF-β1 20 ng/mL, 4 days, % cells positive for αSMA
Description: Representative compounds were screened using primary human fibroblasts (derived from IPF patients) treated with TGF-β1 to determine their ability to inhibit the fibrotic process.
Primary human fibroblasts derived from IPF patients (LL29 cells) [^1Xiaoqiu Liu, et. al., “Fibrotic Lung Fibroblasts Show Blunted Inhibition by cAMP Due to Deficient cAMP Response Element-Binding Protein Phosphorylation”, Journal of Pharmacology and Experimental Therapeutics (2005), 315(2), 678-687; ^2Watts, K. L., et. al., “RhoA signaling modulates cyclin D1 expression in human lung fibroblasts; implications for idiopathic pulmonary fibrosis”, Respiratory Research (2006), 7(1), 88] were obtained from American Type Culture Collection (ATCC) and expanded in F12 medium supplemented with 15% Fetal Bovine Serum and Penicillin/Streptomycin.
Each compound was dissolved in DMSO as a 10 mM stock and used to prepare compound source plates. Serial dilution (1:2, 11-point dose-response curves from 10 μM to 1.87 nM) and compound transfer was performed using the ECHO 550 (Labcyte, Sunnyvale, Calif.) into 384-well clear bottom assay plates (Greiner Bio-One) with appropriate DMSO backfill for a final DMSO concentration of 0.1%. LL29 cells are plated at 1,500 cells/well in 80 μL/well F12 medium supplemented with 1% Fetal Bovine Serum. One hour after addition of the cells, TGF-β1 (Peprotech; 20 ng/mL) was added to the plates to induce fibrosis (ref. 1 and 2 above). Wells treated with TGF-β1 and containing DMSO were used as controls. Cells were incubated at 37° C. and 5% CO2 for 4 days. Following incubation for 4 days, SYTOX green nucleic acid stain (Life Technologies [Thermo Fisher Scientific]) was added to the wells at a final concentration of 1 μM and incubated at room temperature for 30 min. Cells were then fixed using 4% formaldehyde (Electron Microscopy Sciences), washed 3 times with PBS followed by blocking and permeabilization using 3% Bovine Serum Albumin (BSA; Sigma) and 0.3% Triton X-100 (Sigma) in PBS. Cells were then stained with antibody specific to α-smooth muscle actin (αSMA; Abcam) (ref. 1 and 2 above) in 3% Bovine Serum Albumin (BSA; Sigma) and 0.3% Triton X-100 (Sigma) in PBS, and incubated overnight at 4° C. Cells were then washed 3 times with PBS, followed by incubation with Alexa Flor-647 conjugated secondary antibody (Life Technologies [Thermo Fisher Scientific]) and DAPI at room temperature for 1 hour. Cells were then washed 3 times with PBS and plates were sealed for imaging. αSMA staining was imaged by excitation at 630 nm and emission at 665 nm and quantified using the Compartmental Analysis program on the CellInsight CX5 (Thermo Scientific). Dead or apoptotic cells were excluded from analysis based on positive SYTOX green staining. % of total cells positive for αSMA were counted in each well and normalized to the average of 11 wells treated with TGF-β1 on the same plate using Dotmatics' Studies Software. The normalized averages (fold change over untreated) of 3 replicate wells for each compound concentration were used to create dose-responses curves and EC50 values were calculated using non-linear regression curve fit in the Dotmatics' Studies Software. For EC50 of >10 μM, the percent inhibition at 10 μM is provided.

EC50 [1] | EC50 [2] | EC50 [3] | SMILES | EC50 [4]
0.108 µM | 5.83 µM | 3.35 µM | CC(C)Nc1cncc(-c2cc3c(-c4cc5c(-c6ccncc6)cccc5[nH]4)n[nH]c3cn2)c1 [Compound 124, N-Isopropyl-5-(3-(4-(pyridin-4-yl)-1H-indol-2-yl)-1H-pyrazolo[3,4-c]pyridin-5-yl)pyridin-3-amine] | 0.138 µM
0.485 µM | 0.37 µM | 0.481 µM | c1ccc(-c2cc3c(-c4cc5c(-c6ccncc6)cccc5[nH]4)n[nH]c3cn2)nc1 [Compound 140, 5-(Pyridin-2-yl)-3-(4-(pyridin-4-yl)-1H-indol-2-yl)-1H-pyrazolo[3,4-c]pyridine] | 0.319 µM
1.42 µM | 2.97 µM | 2.02 µM | O=C(Cc1ccccc1)Nc1cncc(-c2cc3c(-c4cc5c(-c6ccccn6)cccc5[nH]4)n[nH]c3cn2)c1 [Compound 150, 2-Phenyl-N-(5-(3-(4-(pyridin-2-yl)-1H-indol-2-yl)-1H-pyrazolo[3,4-c]pyridin-5-yl)pyridin-3-yl)acetamide] | 0.531 µM
0.55 µM | 0.938 µM | 2.49 µM | O=C(Nc1cncc(-c2cc3c(-c4cc5c(-c6ccccn6)cccc5[nH]4)n[nH]c3cn2)c1)C1CCCCC1 [Compound 163, N-(5-(3-(4-(Pyridin-2-yl)-1H-indol-2-yl)-1H-pyrazolo[3,4-c]pyridin-5-yl)pyridin-3-yl)cyclohexanecarboxamide] | 0.081 µM
1.33 µM | 4.65 µM | 4.29 µM | CC(C)CC(=O)Nc1cncc(-c2cc3c(-c4cc5c(N6CCCCC6)cccc5[nH]4)n[nH]c3cn2)c1 [Compound 170, 3-Methyl-N-(5-(3-(4-(piperidin-1-yl)-1H-indol-2-yl)-1H-pyrazolo[3,4-c]pyridin-5-yl)pyridin-3-yl)butanamide] | 0.902 µM
0.553 µM | 1.08 µM | 0.167 µM | CCNCc1cncc(-c2cc3c(-c4cc5c(N6CCCCC6)cccc5[nH]4)n[nH]c3cn2)c1 [Compound 174, N-((5-(3-(4-(Piperidin-1-yl)-1H-indol-2-yl)-1H-pyrazolo[3,4-c]pyridin-5-yl)pyridin-3-yl)methyl)ethanamine] | 0.65 µM
3.04 µM | 7.14 µM | 8.89 µM | CC(C)(C)C(=O)Nc1cncc(-c2cc3c(-c4cc5c(N6CCCCC6)cccc5[nH]4)n[nH]c3cn2)c1 [Compound 176, N-(5-(3-(4-(Piperidin-1-yl)-1H-indol-2-yl)-1H-pyrazolo[3,4-c]pyridin-5-yl)pyridin-3-yl)pivalamide] | 0.7 µM
0.362 µM | 1.73 µM | 1 µM | CC(C)Nc1cncc(-c2cc3c(-c4cc5c(N6CCCCC6)cccc5[nH]4)n[nH]c3cn2)c1 [Compound 180, N-Isopropyl-5-(3-(4-(piperidin-1-yl)-1H-indol-2-yl)-1H-pyrazolo[3,4-c]pyridin-5-yl)pyridin-3-amine] | 0.267 µM
3.42 µM | 6.06 µM | 8.78 µM | c1ccc(-c2cc3c(-c4cc5c(N6CCCCC6)cccc5[nH]4)n[nH]c3cn2)nc1 [Compound 196, 3-(4-(Piperidin-1-yl)-1H-indol-2-yl)-5-(pyridin-2-yl)-1H-pyrazolo[3,4-c]pyridine] | 1.16 µM
1.16 µM | 2.61 µM | 1.08 µM | CN1CCN(c2cccc3[nH]c(-c4n[nH]c5cnc(-c6cncc(N)c6)cc45)cc23)CC1 [Compound 227, 5-(3-(4-(4-Methylpiperazin-1-yl)-H-indol-2-yl)-1H-pyrazolo[3,4-c]pyridin-5-yl)pyridin-3-amine] | 1.91 µM
1.04 µM | 3.13 µM | 1.94 µM | CN1CCN(c2cccc3[nH]c(-c4n[nH]c5cnc(-c6cncc(NC(=O)Cc7ccccc7)c6)cc45)cc23)CC1 [Compound 234, N-(5-(3-(4-(4-Methylpiperazin-1-yl)-H-indol-2-yl)-1H-pyrazolo[3,4-c]pyridin-5-yl)pyridin-3-yl)-2-phenylacetamide] | 1.25 µM
